The values below come from patent publication US6875578B2, “System for cell-based screening” (priority 1997, dated 2005).

Test [1] concerns MCF-7 cells. The experiment in a line: Apoptosis actin reorganization (f-actin content), MCF-7 cells. Type of test: cell-based. The settings on record: 30 hours. Here is the method:
(§1) Cells were plated in 96-well plates at densities of 3×10^3 to 1×10^4 cells/well. The following day apoptotic inducers were added at indicated concentrations. Cells were incubated for the indicated time periods (usually 16-30 hours). The next day the medium was removed and cells were stained with 5 μg/ml Hoechst (Molecular Probes, Inc.) in fresh medium and incubated for 30 minutes at […]. Cells were washed in HBSS and fixed with 3.7% formaldehyde in HBSS at room temperature. Plates were washed with HBSS and permeabilized with 0.5% v/v Triton X-100 in HBSS at room temperature. Plates were washed in HBSS and stained with 100 μl of 1 U/ml of Alexa 488 Phalloidin stock (100 μl/well, Molecular Probes, Inc.). Cells were washed 2×with HBSS at RT and the plate was sealed.
(§2) Quantitation of f-actin content was accomplished by measuring the intensity of phalloidin staining around the nucleus. This was determined to be a reasonable approximation of a full cytoplasmic average of the intensity. The mask used to approximate this cytoplasmic measure was derived from the nuclear mask defined by the Hoechst stain. Derivation was accomplished by combinations of erosions and dilations.

Test [2] deals with L929 cells. The experiment in a line: Apoptosis mitochondrial mass/potential, L929 cells. The settings on record: 30 hours. Type of test: cell-based, mouse. The protocol:
(§3) Cells were plated into 96-well plates at densities of 3×10^3 to 1×10^4 cells/well. The following day apoptotic inducers were added at the indicated concentrations and cells were incubated for the indicated time periods (usually 16-30 hours). Cells were stained with 5 μg/ml Hoechst (Molecular Probes, Inc.) and 750 nM MITOTRACKER™ Red (CMXRos, Molecular Probes, Inc.) in fresh medium and incubated for 30 minutes at 37° C. Cells were washed in HBSS and fixed with 3.7% formaldehyde in HBSS at room temperature. Plates were washed with HBSS and permeabilized with 0.5% v/v TRITON™ X-100 in HBSS at room temperature. Cells were washed 2× with HBSS at room temperature and the plate was sealed. For dual labeling of mitochondria, cells were treated with 200 nM MITOTRACKER™ Green and 200 nM MITOTRACKER™ Red for 0.5 hours before fixation.
(§4) The mitochondrial membrane potential is measured by labeling mitochondria with both MITOTRACKER™ Green FM and MITOTRACKER™ Red (Molecular Probes, mc). MITOTRACKER™ Red labeling is proportional to both mass and membrane potential. MITOTRACKER™ Green FM labeling is proportional to mass. The ratio of MITOTRACKER™ Red signal to the MITOTRACKER™ Green FM signal provides a measure of mitochondrial membrane potential (Poot and Pierce, 1999). This ratio normalizes the […]. […]

Another test concerns L-929 cells. The experiment in a line: High-content screen of paclitaxel-induced apoptosis, L-929 cells. It counts as cell-based, mouse. The protocol:
(§5) The cells chosen for this study were mouse connective tissue fibroblasts (L-929; ATCC CCL-1) and a highly invasive glioblastoma cell line (SNB-19; ATCC CRL-2219) (Welch et al., In Vitro Cell. Dev. Bid. 31:610, 1995). The day before treatment with an apoptosis inducing drug, 3500 cells were placed into each well of a 96-well plate and incubated overnight at 37° C. in a humidified 5% CO2 atmosphere. The following day, the culture medium was removed from each well and replaced with fresh medium containing various concentrations of paclitaxel (0-50 μM) from a 20 mM stock made in DMSO. The maximal concentration of DMSO used in these experiments was 0.25%. The cells were then incubated for 26 h as above. At the end of the paclitaxel treatment period, each well received fresh medium containing 750 nM MITOTRACKER™ Red (Molecular Probes; Eugene, Oreg.) and 3 μg/ml Hoechst 33342 DNA-binding dye (Molecular Probes) and was incubated as above for 20 mm. Each well on the plate was then washed with HBSS and fixed with 3.7% formaldehyde in HBSS for 15 mm at room temperature. The formaldehyde was washed out with HBSS and the cells were permeabilized for 90 s with 0.5% (v/v) Triton X-100, washed with HBSS, incubated with 2 U ml^−1 BODIPY™ FL phallacidin (Molecular Probes) for 30 mm, and washed with HBSS. The wells on the plate were then filled with 200 μl HBSS, sealed, and the plate stored at 4° C. if necessary. The fluorescence signals from plates stored this way were stable for at least two weeks after preparation. As in the nuclear translocation assay, fluorescence reagents can be designed to convert this assay into a live cell high-content screen.
The fluorescence intensity of intracellular MITOTRACKER™ Red, Hoechst 33342, and BODIPY™ FL phallacidin was measured with the cell screening system as described supra. Morphometric data from each pair of images obtained from each well was also obtained to detect each object in the image field (e.g., cells and nuclei), and to calculate its size, shape, and integrated intensity.
A total of 50-250 cells were measured per image field. For each field of cells, the following calculations were performed: (1) The average nuclear area (μm^2) was calculated by dividing the total nuclear area in a field by the number of nuclei detected. (2) The average nuclear perimeter (μm) was calculated by dividing the sum of the perimeters of all nuclei in a field by the number of nuclei detected in that field. Highly convoluted apoptotic nuclei had the largest nuclear perimeter values. (3) The average nuclear brightness was calculated by dividing the integrated intensity of the entire field of nuclei by the number of nuclei in that field. An increase in nuclear brightness was correlated with increased DNA content. (4) The average cellular brightness was calculated by dividing the integrated intensity of an entire field of cells stained with MITOTRACKER™ dye by the number of nuclei in that field. Because the amount of MITOTRACKER™ dye that accumulates within the mitochondria is proportional to the mitochondrial potential, an increase in the average cell brightness is consistent with an increase in mitochondrial potential. (5) The average cellular brightness was also calculated by dividing the integrated intensity of an entire field of cells stained with BODIPY™ FL phallacidin dye by the number of nuclei in that field. […]

The subject of test [3] is L929 cells. The experiment in a line: Apoptosis actin reorganization (f-actin content), L929 cells. Type of test: cell-based, mouse. The conditions noted are these: 30 hours. Here is the method: as §1, §2
Test [4] deals with MCF-7 cells. The experiment in a line: Apoptosis mitochondrial mass/potential, MCF-7 cells. Type of test: cell-based. The settings on record: 30 hours. The protocol: as §3, §4
For a further test, the system named is SNB-19 cells. The experiment in a line: High-content screen of paclitaxel-induced apoptosis, SNB-19 cells. Type of test: cell-based. The settings on record: 26 h. Here is the method: as §5, with “The formaldehyde was washed out with HBSS and the cells were permeabilized for 90 s with 0.5% (v/v) Triton X-100, washed with HBSS, incubated with 2 U ml^−1 BODIPY™ FL phallacidin (Molecular Probes) for 30 mm, and washed with HBSS. The wells on the plate were then filled with 200 μl HBSS, sealed, and the plate stored at 4° C. if necessary.” left out
The fluorescence intensity of intracellular MITOTRACKER™ Red, Hoechst 33342, and BODIPY™ FL phallacidin was measured with the cell screening system as described supra. […]
A total of 50-250 cells were measured per image field. For each field of cells, the following calculations were performed: (1) The average nuclear area (μm^2) was calculated by dividing the total nuclear area in a field by the number of nuclei detected. (2) The average nuclear perimeter (μm) was calculated by dividing the sum of the perimeters of all nuclei in a field by the number of nuclei detected in that field. […] (3) The average nuclear brightness was calculated by dividing the integrated intensity of the entire field of nuclei by the number of nuclei in that field. […]

“Also recorded” adds a separate entry of the source.

As for `CC(=O)O[C@H]1C(=O)[C@@]2(C)[C@H]([C@H](OC(=O)c3ccccc3)[C@]3(O)C[C@H](OC(=O)[C@H](O)[C@@H](NC(=O)c4ccccc4)c4ccccc4)C(C)=C1C3(C)C)[C@]1(OC(C)=O)CO[C@@H]1C[C@@H]2O` [paclitaxel], the “change in peri-nuclear f-actin content” value in the test with MCF-7 cells [1] is “highly variable; also recorded: highly variable and not significant”; in the test on L929 cells [3] it was “dose-dependent increases in f-actin content”; with L929 cells [3] (listed as Paclitaxel), “graded increases in f-actin”. Moreover, the “mitochondrial changes (mass / membrane potential)” value with L929 cells [2] is reported as “consistent increases in mitochondrial mass”; with MCF-7 cells [4] it was “consistent increases in mitochondrial mass; also recorded: an increase in mitochondrial mass”. Moreover, in the test on L-929 cells (L-929 cells compared with SNB-19 cells), the “sensitivity, each parameter measured” value is listed as “less sensitive to low concentrations of paclitaxel than were SNB-19 cells”. Also, the “concentration of maximal response in many parameters” value in the test with L-929 cells (L-929 cells, 26 h) turned out to be 5 µM. The mitochondrial potential result is given as “did not show a sharp decrease in mitochondrial potential” with L-929 cells (L-929 cells, any of the concentrations tested (0-50 μM), 26 h) and “minimal at the same concentration of paclitaxel” in the test on SNB-19 cells (10 nM paclitaxel). Besides, the nuclear morphology entry in the test with L-929 cells (L-929 cells, increasing amounts, 26 h) is “caused nuclei to enlarge and fragment”. For the same compound, the “dose of maximal response relative to SNB-19 cells” value in the test with L-929 cells (L-929 vs SNB-19 cells) is given as 500 fold. Moreover, the “concentration at which area, brightness, and fragmentation of the nucleus and actin polymerization values reached a maximum value” in the test with SNB-19 cells turned out to be 10 nM. In the test with SNB-19 cells (>10 nM paclitaxel), the “all the parameters measured at increasing concentrations” value was “approached control levels”.
